IC50 data for 26 compounds are collected here from patent publication US20230271954A1 (Gossamer Bio Services, Inc., priority 2020, published 2023).

The IC50 is the concentration at which inhibition is half-maximal.

One experiment addresses DGKα (Homo sapiens, UniProt P23743). Nature of the experiment: DGKα biochemical assay (ADP-Glo). Conditions: read-out: DGK α IC50. A digest of the protocol: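 ADP-Glo kinase assay using OAG/PS (1:2) lipid substrate, sonicated, in HEPES pH 7.0 buffer with MgCl2, CaCl2, DTT, BSA, Triton X-100. Enzyme preincubated with compound 30 min at RT; substrate with ATP (DGKα: 400 μM) added, 45 min RT. Luminescence read; % inhibition vs DMSO and no-enzyme controls.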
(In ADP-Glo the light output rises with the ADP produced.)

Another experiment addresses T1, DGKζ (Homo sapiens, UniProt Q13574).
T1 construct: purchased Carna 12-110
Nature of the experiment: DGKζ biochemical assay (ADP-Glo). Conditions: read-out: DGK ζ IC50.

T1 sequence (Q13574 1-929 isoform Q13574-4): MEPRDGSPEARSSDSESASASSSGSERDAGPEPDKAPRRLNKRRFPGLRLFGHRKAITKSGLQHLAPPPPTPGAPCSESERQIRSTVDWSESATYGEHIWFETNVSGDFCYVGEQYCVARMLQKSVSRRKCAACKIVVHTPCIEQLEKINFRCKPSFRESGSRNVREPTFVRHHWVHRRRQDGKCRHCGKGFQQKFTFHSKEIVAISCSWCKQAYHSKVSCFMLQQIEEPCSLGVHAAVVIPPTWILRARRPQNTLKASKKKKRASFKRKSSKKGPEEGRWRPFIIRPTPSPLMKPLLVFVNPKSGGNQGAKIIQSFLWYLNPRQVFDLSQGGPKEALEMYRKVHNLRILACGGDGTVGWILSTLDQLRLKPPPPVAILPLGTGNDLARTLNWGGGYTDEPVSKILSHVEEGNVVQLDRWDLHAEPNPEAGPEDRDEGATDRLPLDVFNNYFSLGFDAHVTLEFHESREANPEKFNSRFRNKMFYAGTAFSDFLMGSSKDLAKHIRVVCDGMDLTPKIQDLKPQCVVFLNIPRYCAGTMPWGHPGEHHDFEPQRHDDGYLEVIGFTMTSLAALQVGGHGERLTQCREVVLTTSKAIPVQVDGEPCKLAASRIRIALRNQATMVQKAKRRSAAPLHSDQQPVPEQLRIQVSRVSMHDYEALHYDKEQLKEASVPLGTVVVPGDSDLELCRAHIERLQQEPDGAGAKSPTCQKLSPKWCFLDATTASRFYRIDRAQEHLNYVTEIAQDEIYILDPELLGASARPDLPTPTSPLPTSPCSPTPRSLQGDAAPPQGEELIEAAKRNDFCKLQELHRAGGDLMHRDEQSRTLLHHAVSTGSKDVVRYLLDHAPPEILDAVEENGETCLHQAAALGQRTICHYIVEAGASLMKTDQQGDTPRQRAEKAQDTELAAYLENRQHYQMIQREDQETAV
Sequence of DGKα (P23743 whole entry): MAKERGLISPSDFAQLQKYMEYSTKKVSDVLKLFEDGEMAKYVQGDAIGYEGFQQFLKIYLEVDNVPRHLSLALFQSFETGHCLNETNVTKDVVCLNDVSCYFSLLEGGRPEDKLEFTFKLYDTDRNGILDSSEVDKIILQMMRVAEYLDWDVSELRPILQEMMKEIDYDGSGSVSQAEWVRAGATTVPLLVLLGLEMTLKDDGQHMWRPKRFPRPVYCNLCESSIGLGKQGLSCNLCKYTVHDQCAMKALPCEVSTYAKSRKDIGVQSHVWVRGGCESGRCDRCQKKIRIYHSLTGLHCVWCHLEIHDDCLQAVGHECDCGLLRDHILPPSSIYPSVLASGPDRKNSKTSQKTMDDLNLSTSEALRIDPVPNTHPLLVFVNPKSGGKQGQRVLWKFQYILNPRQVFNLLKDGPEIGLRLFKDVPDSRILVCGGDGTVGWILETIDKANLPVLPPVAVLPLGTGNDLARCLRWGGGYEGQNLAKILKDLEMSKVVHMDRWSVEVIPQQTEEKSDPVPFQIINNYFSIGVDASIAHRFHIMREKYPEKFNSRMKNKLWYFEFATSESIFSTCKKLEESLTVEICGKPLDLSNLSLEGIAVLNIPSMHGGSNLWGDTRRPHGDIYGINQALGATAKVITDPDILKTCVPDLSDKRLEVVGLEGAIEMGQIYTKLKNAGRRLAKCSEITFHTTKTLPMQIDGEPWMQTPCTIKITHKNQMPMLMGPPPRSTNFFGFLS

With `Cn1c(=O)c(C#N)c(N(C)[C@H]2CC[C@H](N(c3ccccc3O)C3CC3)CC2)c2nc(Cl)ccc21` [Example 3D, 6-Chloro-4-((trans-4-(cyclopropyl(2-hydroxyphenyl)amino)cyclohexyl)(methyl)amino)-1-methyl-2-oxo-1,2-dihydro-1,5-naphthyridine-3-carbonitrile], the concentration for half-maximal inhibition (IC50) at DGKα fell in the range of 10 to 100 nM; at DGKζ, 100 to 1000 nM.
On to `COc1cc(N(CC2CC2)[C@H]2CC[C@@H](N(C)c3c(C#N)c(=O)n(C)c4ccc(Cl)nc34)CC2)ccc1F` [Example 32, cis-6-chloro-4-((4-((cyclopropylmethyl)(4-fluoro-3-methoxyphenyl)amino)cyclohexyl)(methyl)amino)-1-methyl-2-oxo-1,2-dihydro-1,5-naphthyridine-3-carbonitrile], for which the IC50 on DGKα was 10 to 100 nM; on DGKζ, at least 1000 nM.
For `Cn1c(=O)c(C#N)c(N(C)[C@H]2CC[C@@H](N(C[C@H]3CCCOC3)c3ccc4c(c3)OCO4)CC2)c2nc(C#N)ccc21` [Example 143, cis-8-((-4-(benzo[d][1,3]dioxol-5-yl(((R)-tetrahydro-2H-pyran-3-yl)methyl)amino)cyclohexyl)(methyl)amino)-5-methyl-6-oxo-5,6-dihydro-1,5-naphthyridine-2,7-dicarbonitrile], in that order: below 10 nM and 10 to 100 nM.
In the case of `COc1cc(N(CC2CC2)[C@H]2CC[C@H](N(C)c3c(C#N)c(=O)n(C)c4ccc(C#N)nc34)CC2)cc(F)c1F` [Example 77], the IC50 on DGKα is at least 1000 nM; on DGKζ, 100 to 1000 nM.
In the case of `Cc1cc(F)cc(N(CC2CC2)[C@H]2CC[C@H](N(C)c3c(C#N)c(=O)n(C)c4ccc(C#N)nc34)CC2)c1` [Example 87], the IC50 at DGKα and at DGKζ was 100 to 1000 nM in each case.
Regarding `Cn1c(=O)c(C#N)c(N(C)[C@H]2CC[C@H](N(c3ccc(F)cc3)C3CCC3)CC2)c2nc(Cl)ccc21` [Example 20, trans-6-chloro-4-((4-(cyclobutyl(4-fluorophenyl)amino)cyclohexyl)(methyl)amino)-1-methyl-2-oxo-1,2-dihydro-1,5-naphthyridine-3-carbonitrile], the results for the IC50 at DGKα and on DGKζ were 10 to 100 nM and at least 1000 nM, respectively.
Consider `CN1C(=O)COc2ccc(N(CC3CC3)[C@H]3CC[C@@H](N(C)c4cc(=O)n(C)c5ccc(C#N)nc45)CC3)cc21` [Example 197, cis-8-((4-((cyclopropylmethyl)(4-methyl-3-oxo-3,4-dihydro-2H-benzo[b][1,4]oxazin-6-yl)amino)cyclohexyl)(methyl)amino)-5-methyl-6-oxo-5,6-dihydro-1,5-naphthyridine-2-carbonitrile], for which the figures for the concentration for half-maximal inhibition (IC50) on DGKα and on DGKζ were 100 to 1000 nM and at least 1000 nM, respectively.
`Cn1c(=O)cc(N(C)[C@H]2CC[C@H](N(c3ccc(F)cc3O)C3CC3)CC2)c2nc(C#N)ccc21` [Example 3X, trans-8-((4-(cyclopropyl(4-fluoro-2-hydroxyphenyl)amino)cyclohexyl)(methyl)amino)-5-methyl-6-oxo-5,6-dihydro-1,5-naphthyridine-2-carbonitrile]: the IC50 on DGKα was 100 to 1000 nM; at DGKζ, at least 1000 nM.
With `COc1cc(N(C2CC2)[C@H]2CC[C@@H](N(C)c3c(C#N)c(=O)n(C)c4ccc(C#N)nc34)CC2)ccc1F` [Example 65], the concentration for half-maximal inhibition (IC50) on DGKα and at DGKζ was 10 to 100 nM each time.
On to `Cn1c(=O)c(C#N)c(N[C@H]2CC[C@H](N(c3ccccc3)C3CC3)CC2)c2nc(Cl)ccc21` [Example 3A, trans-6-Chloro-4-((4-(cyclopropyl(phenyl)amino)cyclohexyl)amino)-1-methyl-2-oxo-1,2-dihydro-1,5-naphthyridine-3-carbonitrile], for which the IC50 on DGKα was below 10 nM; on DGKζ, at least 1000 nM.
Consider `Cn1c(=O)c([N+](=O)[O-])c(N2CCC(N(CC3COC3)c3ccccc3)CC2)c2nc(C#N)ccc21` [Example 1C, 5-Methyl-7-nitro-8-(4-((oxetan-3-ylmethyl)(phenyl)amino)piperidin-1-yl)-6-oxo-5,6-dihydro-1,5-naphthyridine-2-carbonitrile], for which the IC50 at DGKα and on DGKζ was at least 1000 nM throughout.
On to `Cn1c(=O)c(C#N)c(N2CCC(N(CC3CC3)c3ccccc3O)CC2)c2nc(Cl)ccc21` [Example 1E, 6-Chloro-4-(4-((cyclopropylmethyl)(2-hydroxyphenyl)amino)piperidin-1-yl)-1-methyl-2-oxo-1,2-dihydro-1,5-naphthyridine-3-carbonitrile], for which the half-inhibitory concentration (IC50) at DGKα was 10 to 100 nM; at DGKζ it was at least 1000 nM.
Consider `Cn1c(=O)cc(N(C)[C@H]2CC[C@@H](N(CC(C)(C)CO)c3ccc(F)cc3)CC2)c2nc(C#N)ccc21` [Example 194, cis-8-((-4-((4-fluorophenyl)(3-hydroxy-2,2-dimethylpropyl)amino)cyclohexyl)(methyl)amino)-5-methyl-6-oxo-5,6-dihydro-1,5-naphthyridine-2-carbonitrile], for which the IC50 was 100 to 1000 nM on DGKα and at least 1000 nM at DGKζ.
Turning to `COc1cc(F)ccc1N(C1CC1)[C@H]1CC[C@H](N(C)c2c(C#N)c(=O)n(C)c3ccc(C#N)nc23)CC1` [Example 37, trans-8-((4-(cyclopropyl(4-fluoro-2-methoxyphenyl)amino)cyclohexyl)(methyl)amino)-5-methyl-6-oxo-5,6-dihydro-1,5-naphthyridine-2,7-dicarbonitrile], the half-maximal inhibitory concentration (IC50) on DGKα is at least 1000 nM; at DGKζ, 100 to 1000 nM.
For `Cn1c(=O)cc(N(C)[C@H]2CC[C@@H](N(CC3CCC3)c3ccc(F)c(CN4CCOCC4)c3)CC2)c2nc(C#N)ccc21` [Example 175, cis-8-((-4-((cyclobutylmethyl)(4-fluoro-3-(morpholinomethyl)phenyl)amino)cyclohexyl) (methyl)amino)-5-methyl-6-oxo-5,6-dihydro-1,5-naphthyridine-2-carbonitrile], in that order: 100 to 1000 nM and 100 to 1000 nM.
As for `Cn1c(=O)c(C#N)c(N(C)[C@H]2CC[C@H](N(CC3CCC3)c3cccc4c3OCO4)CC2)c2nc(C#N)ccc21` [Example 112, trans-8-((-4-(benzo[d][1,3]dioxol-4-yl(cyclobutylmethyl)amino)cyclohexyl)(methyl)amino)-5-methyl-6-oxo-5,6-dihydro-1,5-naphthyridine-2,7-dicarbonitrile], the values for the IC50 on DGKα and on DGKζ were 10 to 100 nM and 100 to 1000 nM, respectively.
For `Cc1cc(F)ccc1N(CC1CC1)[C@H]1CC[C@H](N(C)c2cc(=O)n(C)c3ccc(C#N)nc23)CC1` [Example 72, trans-8-((4-((cyclopropylmethyl)(4-fluoro-2-methylphenyl)amino)cyclohexyl)(methyl)amino)-5-methyl-6-oxo-5,6-dihydro-1,5-naphthyridine-2-carbonitrile], the IC50 on DGKα is at least 1000 nM; on DGKζ, 100 to 1000 nM.
In the case of `Cn1c(=O)c(C#N)c(N(C)[C@H]2CC[C@H](N(c3ccc(F)cn3)C3CC3)CC2)c2nc(Cl)ccc21` [Example 3I], the IC50 on DGKα is 10 to 100 nM; at DGKζ, 100 to 1000 nM.
As for `CN1C(=O)COc2ccc(N(CC3CC3)[C@H]3CC[C@@H](N(C)c4c(C#N)c(=O)n(C)c5ccc(C#N)nc45)CC3)cc21` [Example 198, cis-8-((4-((cyclopropylmethyl)(4-methyl-3-oxo-3,4-dihydro-2H-benzo[b][1,4]oxazin-6-yl)amino)cyclohexyl)(methyl)amino)-5-methyl-6-oxo-5,6-dihydro-1,5-naphthyridine-2,7-dicarbonitrile], the IC50 on DGKα and at DGKζ was at least 1000 nM throughout.
With `Cn1c(=O)c(C#N)c(N(C)[C@H]2CC[C@@H](N(c3ccc(F)cc3)C3CC3)CC2)c2nc(Cl)ccc21` [Example 51, cis-6-chloro-4-((4-(cyclopropyl(4-fluorophenyl)amino)cyclohexyl)(methyl)amino)-1-methyl-2-oxo-1,2-dihydro-1,5-naphthyridine-3-carbonitrile], the IC50 was below 10 nM at DGKα and 100 to 1000 nM at DGKζ.
As for `Cn1c(=O)c(C#N)c(N[C@H]2CC[C@H](N(CC3CC3)c3ccccc3)CC2)c2nc(Cl)ccc21` [Example 3B, trans-6-Chloro-4-((4-((cyclopropylmethyl)(phenyl)amino)cyclohexyl)amino)-1-methyl-2-oxo-1,2-dihydro-1,5-naphthyridine-3-carbonitrile], the results for the IC50 on DGKα and on DGKζ were below 10 nM and at least 1000 nM, respectively.
Turning to `Cc1[nH]c2ccccc2c1C(=O)N[C@H]1CC[C@H](N(CC2CC2)c2ccccc2)CC1` [Example 4B], the half-inhibitory concentration (IC50) at DGKα and at DGKζ was at least 1000 nM each time.
`Cn1c(=O)cc(N[C@H]2CC[C@@H](N(CC3COC3)c3ccccc3)CC2)c2nc(C#N)ccc21` [Example 3Q, cis-5-Methyl-8-((4-((oxetan-3-ylmethyl)(phenyl)amino)cyclohexyl)amino)-6-oxo-5,6-dihydro-1,5-naphthyridine-2-carbonitrile]: the half-inhibitory concentration (IC50) at DGKα is 100 to 1000 nM; at DGKζ, at least 1000 nM.
For `COc1cc(N(C2CC2)[C@H]2CC[C@@H](N(C)c3cc(=O)n(C)c4ccc(C#N)nc34)CC2)ccc1F` [Example 83], in that order: 100 to 1000 nM and 100 to 1000 nM.
For the compound `Cc1ccc(F)cc1N(CC1CC1)[C@H]1CC[C@H](N(C)c2c(C#N)c(=O)n(C)c3ccc(C#N)nc23)CC1` [Example 117, trans-8-((4-((cyclopropylmethyl)(5-fluoro-2-methylphenyl)amino)cyclohexyl)(methyl)amino)-5-methyl-6-oxo-5,6-dihydro-1,5-naphthyridine-2,7-dicarbonitrile], the half-inhibitory concentration (IC50) on DGKα was at least 1000 nM; at DGKζ it was 10 to 100 nM.
For `Cn1c(=O)cc(N(C)[C@H]2CC[C@@H](N(CC3CC3)c3ccc4c(c3)OCO4)CC2)c2nc(C#N)ccc21` [Example 75], in that order: 10 to 100 nM and at least 1000 nM.
